Consider 16 compounds from patent publication US9434738B2, “Macrocyclic benzofuran and azabenzofuran compounds for the treatment of hepatitis C” (BRISTOL-MYERS SQUIBB COMPANY, priority 2013, dated 2016).

Series [1] has as its system genotype 1b HCV replicon in Huh-7 cells. The series can be described thus: HCV replicon luciferase assay, genotype 1b. The format is cell-based. As to conditions: Hepatitis C virus, 72 h, Huh-7, Renilla luciferase, 3 days. The method, then:
Cell lines. The cell lines used to evaluate compounds consist of a human hepatocyte derived cell line (Huh-7) that constitutively expresses a genotype 1a or 1b HCV replicon containing a Renilla luciferase reporter gene. These cells were maintained in Dulbecco's modified Eagle medium (DMEM) containing 10% FBS, 100 U/mL penicillin/streptomycin and 1.0 mg/mL G418.
HCV Replicon Luciferase Assay.
To evaluate compound efficacy, HCV replicon cells were seeded in 96-well plates in DMEM containing 10% FBS at a cell density of 10^4/well. Following incubation at 37° C. overnight, compounds serially diluted in DMSO were added to the cell plates. Alternatively, titrated compounds were transferred to sterile 384-well tissue-culture treated plates and the plates seeded with 50 μL of cells at a density of 2.4×10^3 cells/well in DMEM containing 4% FCS (final DMSO concentration at 0.5%). After 3 days incubation at 37° C., cells were analyzed for Renilla Luciferase activity using the EnduRen substrate (Promega cat #E6485) according to the manufacturer's directions. Briefly, the EnduRen substrate was diluted in DMEM and then added to the plates to a final concentration of 7.5 μM. The plates were incubated for at least 1 h at 37° C. then read on a TopCount NXT Microplate Scintillation and Luminescence Counter (Packard) or Viewlux Imager (PerkinElmer) using a luminescence program. The 50% effective concentration (EC50) was calculated using the exponential form of the median effect equation where EC50=100−[(δFinh/δFcon)×100].
For orientation: A replicon is a self-replicating genome or part of one, used to study replication in cells.

Another series relates to HCV RNA levels. Particulars: cited from earlier work.
The next series has as its system HCV. As to conditions: combination therapy; cited from earlier work.

Where two headings read alike, the source gives them in different places. A value given as a limit tells only on which side of the number the result lay.

The term EC50 denotes the concentration needed to bring the measured effect to its halfway point. Take `CNC(=O)c1c(-c2ccc(F)cc2)oc2cc3c(cc12)-c1cc(C(=O)NC(C)(C)C)cc(c1)N(S(C)(=O)=O)CCCCCCCCN3S(C)(=O)=O` [Compound 1005]: the EC50 in series [1] (read-out: EC50 1b (class)) lay within 0.1 to 1 µM. The same measure, in the same setting: to `CNC(=O)c1c(-c2ccc(F)cc2)oc2cc3c(cc12)-c1cc(cc(C(=O)NC(C)(C)C)c1)NC(=O)CCCCC(=O)N3` [Compound 1051] belongs above 1 µM. The same measure, in the same setting: to `CNC(=O)c1c(-c2ccc(F)cc2)oc2cc3c(cc12)-c1cc(cc(C(=O)NC(C)(C)C)c1)NC(=O)OCCOC(=O)N3` [Compound 1054] belongs above 1 µM; to `CNC(=O)c1c(-c2ccc(F)cc2)oc2cc3c(cc12)-c1cc(cc(C(=O)NC(C)(C)C)c1)NC(=S)NCCCCNC(=S)N3` [Compound 1057], above 1 µM; to `CNC(=O)c1c(-c2ccc(F)cc2)oc2cc3c(cc12)-c1cc(C(=O)NC(C)(C)C)cc(c1)N(S(C)(=O)=O)CCCCCN3S(C)(=O)=O` [Compound 1002], 0.1 to 1 µM. With `CNC(=O)c1c(-c2ccc(F)cc2)oc2cc3c(cc12)-c1cc(C(=O)NC(C)(C)C)cc(c1)N(S(C)(=O)=O)CCCCCCN3S(C)(=O)=O` [Compound 1003], the EC50 in series [1] (read-out: EC50 1b (class)) was in the range of 0.1 to 1 µM.

For `CNC(=O)c1c(-c2ccc(F)cc2)oc2cc(N(CCO)S(C)(=O)=O)c(C3CC3)cc12` [HCV-796], the hepatic toxicity entry with HCV RNA levels (extended dosing of the combination regimens) is “hepatic toxicity observed”. For the same compound, the “HCV RNA levels in patients” value in the series on HCV RNA levels (patients, single agent or combined with interferon and ribavirin) is reported as “reduce HCV RNA levels”. In the case of `CNC(=O)c1c(-c2ccc(F)cc2)oc2cc3c(cc12)-c1cc(cc(C(=O)NC(C)(C)C)c1)NC(=O)CCCCCCCCC(=O)N3` [Compound 1052], the EC50 in series [1] (read-out: EC50 1b (class)) is 0.1 to 1 µM; in series [1] (read-out: EC50 (uM) 1b) it was 0.789 µM. Regarding `CNC(=O)c1c(-c2ccc(F)cc2)oc2cc3c(cc12)-c1cc(cc(C(=O)NC(C)(C)C)c1)NC(=O)OCCOCCOCCOC(=O)N3` [Compound 1056], the EC50 is above 1 µM in series [1] (read-out: EC50 1b (class)) and 8.34 µM in series [1] (read-out: EC50 (uM) 1b).

Take `CNC(=O)c1c(-c2ccc(F)cc2)oc2cc3c(cc12)-c1cc(cc(C(=O)NC(C)(C)C)c1)NC(=O)OCCOCCOC(=O)N3` [Compound 1055]: the EC50 in series [1] (read-out: EC50 1b (class)) was above 1 µM. For the compound `CNC(=O)c1c(-c2ccc(F)cc2)oc2cc3c(cc12)-c1cc(C(=O)NC(C)(C)C)cc(c1)N(S(C)(=O)=O)CCCCCCCN3S(C)(=O)=O` [Compound 1004], the results for the EC50 in series [1] (read-out: EC50 1b (class)) and in series [1] (read-out: EC50 (uM) 1b) were below 0.1 µM and 0.0477 µM, respectively.

As to alpha-interferon and ribavirin, the sustained efficacy with HCV is given as 40 % of patients.

As to `CNC(=O)c1c(-c2ccc(F)cc2)oc2cc3c(cc12)-c1cc(cc(C(=O)NC(C)(C)C)c1)NC(=O)CCCCCCCCCCC(=O)N3` [Compound 1053], the EC50 in series [1] (read-out: EC50 1b (class)) is 0.1 to 1 µM.

Regarding `CNC(=O)c1c(-c2ccc(F)cc2)oc2cc3c(cc12)-c1cc(cc(C(=O)NC(C)(C)C)c1)NC(=S)NCCCCCCCCNC(=S)N3` [Compound 1058], in series [1] (read-out: EC50 1b (class)), the EC50 was above 1 µM. On to `CNC(=O)c1c(-c2ccc(F)cc2)oc2cc3c(cc12)-c1cc(C(=O)NC(C)(C)C)cc(c1)N(S(C)(=O)=O)CCCCN3S(C)(=O)=O` [Compound 1001], for which the results for the EC50 in series [1] (read-out: EC50 1b (class)) and in series [1] (read-out: EC50 (uM) 1b) were 0.1 to 1 µM and 0.171 µM, respectively. The like results for `CNC(=O)c1c(-c2ccc(F)cc2)oc2cc3c(cc12)-c1cc(C(=O)NC(C)(C)C)cc(c1)N(S(C)(=O)=O)CCc1ccc(cc1)CCN3S(C)(=O)=O` [Compound 1006] were, in that order, above 1 µM and 1.21 µM.
